The values that follow come from article PMC6722136, “Engineered Carbonic Anhydrase VI-Mimic Enzyme Switched the Structure and Affinities of Inhibitors” (Scientific Reports, 2019).

For data set [1] the following is noted: pKa of sulfonamide amino group of inhibitor; cited from earlier work.
For data set [2], the target named is T1, CA VI (Homo sapiens, UniProt P23280).
T1 construct: made in house; host or cells: E. coli
The conditions noted are these: FTSA, pH 7.0, 37 °C; read-out: Kd_obs CA VI; cited from earlier work.

Data set [3] addresses T2, CA VI-mimic (CA II mutant A65T, N67Q, F130Y, V134Q, L203T) (Homo sapiens, UniProt P00918, A65T/F130Y/L203T/N67Q/V134Q).
T2 construct: encoding full length CA II (1-260), was used in site-directed mutagenesis; made in house; host or cells: E. coli BL21(DE3)
The experiment in a line: Fluorescent thermal shift assay (FTSA), inhibitor binding to CA VI-mimic. The note with it: for difference between Kd_obs and Kd_intr for CA VI-mimic / Kd: FTSA; for difference between Kd_obs and Kd_intr for CA VI-mimic: 37 °C; for Kd: read-out: Kd_obs CA VI-mimic.

The next data set deals with T3, CA II (Homo sapiens, UniProt P00918).
T3 construct: encoding full length CA II (1-260), was used in site-directed mutagenesis; made in house; host or cells: E. coli
The conditions noted are these: FTSA, pH 7.0, 37 °C; read-out: Kd_obs CA II; cited from earlier work.

The target of data set [4] is T1, CA VI. The experiment in a line: Stopped-flow CO2 hydration assay (SFA), inhibition of CA VI. It is filed as biochemical.
The mark [5] stands for this setting: SFA pH 7.5, measured at 23 °C, extrapolated to 37 °C by van't Hoff equation, read-out: Kd_obs CA VI by SFA (in parentheses).
The mark [6] stands for this setting: SFA, pH 7.5, 23 °C, read-out: Kd_obs CA VI by SFA.

Where two headings read alike, the source gives them in different places.

T1 sequence (P23280 18-308): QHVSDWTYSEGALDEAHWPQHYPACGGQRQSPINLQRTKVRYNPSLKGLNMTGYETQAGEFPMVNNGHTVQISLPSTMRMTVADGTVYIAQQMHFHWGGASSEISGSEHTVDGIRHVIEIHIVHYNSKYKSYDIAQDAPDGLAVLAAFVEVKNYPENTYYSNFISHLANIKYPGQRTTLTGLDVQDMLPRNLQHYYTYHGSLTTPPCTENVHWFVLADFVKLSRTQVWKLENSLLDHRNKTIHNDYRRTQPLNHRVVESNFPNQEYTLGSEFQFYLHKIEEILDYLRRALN

Regarding `NS(=O)(=O)C(F)(F)F` [Inhibitor 1], in data set [1], the pKa_SA is 6.02.

Regarding `CCOc1ccc2nc(S(N)(=O)=O)sc2c1` [Inhibitor 2], the pKa_SA in data set [1] is given as 7.82.

As for `CC(=O)/N=c1/sc(S(N)(=O)=O)nn1C` [Inhibitor 3], the pKa_SA in data set [1] was 6.86.

Regarding `NS(=O)(=O)c1c(F)c(F)c(F)c(F)c1F` [Inhibitor 4], the pKa_SA in data set [1] was 8.12. The Kd on CA VI [2] was 0.43 µM.

Take `NS(=O)(=O)c1c(F)c(F)c(N2CCOCC2)c(F)c1F` [Inhibitor 5]: the pKa_SA in data set [1] is listed as 8.61. Besides, the Kd at CA VI [2] is 1.1 µM.

Take `NS(=O)(=O)c1c(F)c(F)c(SCCO)c(F)c1F` [Inhibitor 6]: the pKa_SA in data set [1] is on record as 8.14.

`NNc1c(F)c(F)c(S(N)(=O)=O)c(F)c1F` [Inhibitor 7]: the pKa_SA in data set [1] is 8.84. Also, at CA VI [2], the Kd was 1 µM.

Consider `NS(=O)(=O)c1c(F)c(F)c(NCc2ccccc2)c(F)c1F` [Inhibitor 8], for which the pKa_SA in data set [1] is 8.47. Further, at CA VI [2], the Kd is 1.2 µM.

With `NS(=O)(=O)c1c(F)c(F)c(Sc2ccccc2)c(F)c1F` [Inhibitor 9], the pKa_SA in data set [1] is on record as 7.80. Besides, the Kd on CA VI [2] was 0.2 µM.

For the molecule `NS(=O)(=O)c1c(F)c(F)c(S(=O)(=O)CCO)c(F)c1F` [Inhibitor 10], the “difference between Kd_obs and Kd_intr for CA VI-mimic” value (from here on “difference between Kd_obs and Kd_intr”) in data set [3] is “lower than 10 fold”. Also, the pKa_SA in data set [1] is recorded as 7.28.

As to `NS(=O)(=O)c1c(F)c(F)c(S(=O)(=O)CCO)c(F)c1NCc1ccccc1` [Inhibitor 11], the Kd in data set [3] (pH 7.0, 37 °C) is 0.14 µM; on CA VI [2], 0.13 µM; at CA II, 0.083 µM. Moreover, in data set [1], the pKa_SA is on record as 7.85.

Consider `NS(=O)(=O)c1c(F)c(F)c(Sc2nc(-c3ccccc3)c(-c3ccccc3)[nH]2)c(F)c1F` [Inhibitor 12], for which the pKa_SA in data set [1] was 7.69. In addition, on CA VI [2], the Kd is 0.14 µM.

Take `NS(=O)(=O)c1c(F)c(F)c(Sc2nc3ccccc3s2)c(F)c1F` [Inhibitor 13]: the pKa_SA in data set [1] was 7.83. Also, at CA VI [2], the Kd is 0.2 µM.

Regarding `Cc1cc(C)nc(Sc2c(F)c(F)c(S(N)(=O)=O)c(F)c2F)n1` [Inhibitor 14], the pKa_SA in data set [1] is recorded as 8.02. For the same molecule, the Kd on CA VI [2] was 1 µM; on CA VI [4] (setting [5]), 0.63 µM; at CA VI [4] (setting [6]), 0.29 µM.

As to `NS(=O)(=O)c1c(F)c(F)c(SCCc2ccccc2)c(F)c1F` [Inhibitor 15], the pKa_SA in data set [1] was 8.05. Further, on CA VI [2], the Kd is 0.4 µM.

Consider `NS(=O)(=O)c1ccc(SCCc2ccccc2)cc1` [Inhibitor 16], for which the “difference between Kd_obs and Kd_intr” value in data set [3] came to 2500 fold. Also, the pKa_SA in data set [1] is on record as 10.1. Also, the Kd at CA VI [2] is 1.1 µM.

Take `NS(=O)(=O)c1c(F)c(F)c(SCCc2ccccc2)c(F)c1N1CCOCC1` [Inhibitor 17]: the Kd (in data set [3]; on CA VI [2]) was 100 µM each time. In addition, the pKa_SA in data set [1] is recorded as 8.67.

Take `NS(=O)(=O)c1c(F)c(F)c(S(=O)(=O)c2ccccc2)c(F)c1F` [Inhibitor 18]: in data set [3], the “difference between Kd_obs and Kd_intr” value is recorded as “lower than 10 fold”. The pKa_SA in data set [1] is listed as 7.07. For the same molecule, the Kd at CA VI [2] is 0.16 µM.

In the case of `NS(=O)(=O)c1c(F)c(F)c(SCCC(=O)O)c(F)c1F` [Inhibitor 19], the pKa_SA in data set [1] was 7.97. In addition, on CA VI [2], the Kd was 0.5 µM.

In the case of `CC(C)Nc1c(F)c(SCCc2ccccc2)c(F)c(F)c1S(N)(=O)=O` [Inhibitor 20], the Kd is 2.5 µM in data set [3] (pH 7.0, 37 °C) and 3.3 µM on CA VI [2]. For the same molecule, the pKa_SA in data set [1] is 8.67.

On to `COc1ccc(CNc2c(F)c(SCCc3ccccc3)c(F)c(F)c2S(N)(=O)=O)cc1OC` [Inhibitor 21], for which the Kd in data set [3] (pH 7.0, 37 °C) was 3.3 µM; at CA VI [2], 20 µM; on CA II, 1.8 µM. In addition, the pKa_SA in data set [1] is recorded as 8.67.

Consider `CCCSc1c(F)c(F)c(S(N)(=O)=O)c(F)c1F` [Inhibitor 22], for which, in data set [1], the pKa_SA is reported as 8.15. Moreover, the Kd at CA VI [2] was 0.14 µM.

With `CCCSc1ccc(S(N)(=O)=O)cc1` [Inhibitor 23], the “difference between Kd_obs and Kd_intr” value in data set [3] was 3200 fold. For the same molecule, the pKa_SA in data set [1] was 10.2. Also, the Kd on CA VI [2] was 0.83 µM; on CA VI [4] (setting [5]), 3.9 µM; on CA VI [4] (setting [6]), 1.8 µM.

`COc1ccc(CNc2c(F)c(SCCO)c(F)c(F)c2S(N)(=O)=O)cc1OC` [Inhibitor 24]: the Kd is 5 µM in data set [3] (pH 7.0, 37 °C); 11 µM at CA VI [2]; 1.3 µM at CA II. Besides, the pKa_SA in data set [1] is 8.67.

For `NS(=O)(=O)c1c(F)c(F)c(S(=O)(=O)CCO)c(NC2CCCCCCC2)c1F` [Inhibitor 25], the pKa_SA in data set [1] is 8.01.

With `NS(=O)(=O)c1c(F)c(F)c(S(=O)(=O)CCc2ccccc2)c(F)c1F` [Inhibitor 26], in data set [3], the “difference between Kd_obs and Kd_intr” value is listed as “lower than 10 fold”. Further, the pKa_SA in data set [1] is given as 7.22. The Kd at CA VI [2] is 0.14 µM.

Turning to `NS(=O)(=O)c1c(F)c(F)c(S(=O)(=O)CCc2ccccc2)c(NC2Cc3ccccc3C2)c1F` [Inhibitor 27], the Kd was 1 µM in data set [3] (pH 7.0, 37 °C); 2 µM at CA VI [2]; 0.035 µM at CA II. Besides, the pKa_SA in data set [1] is reported as 7.87.

On to `NS(=O)(=O)c1c(F)c(F)c(S(=O)(=O)CCc2ccccc2)c(NCc2ccccc2)c1F` [Inhibitor 29], for which the Kd in data set [3] (pH 7.0, 37 °C) was 0.2 µM; at CA VI [2], 0.11 µM. Further, the pKa_SA in data set [1] was 7.87.

Turning to `NS(=O)(=O)c1ccc(SCCO)cc1` [Inhibitor 30], the pKa_SA in data set [1] is listed as 9.96.

For the molecule `NS(=O)(=O)c1c(F)c(F)c(S(=O)(=O)CCc2ccccc2)c(N[C@H](c2ccccc2)[C@H](O)c2ccccc2)c1F` [Inhibitor 31], the Kd was 2 µM in data set [3] (pH 7.0, 37 °C); 1 µM at CA VI [2]; 0.033 µM at CA II. Further, the “weakening of intrinsic binding to CA VI-mimic relative to comparison compound” value in data set [3] (Kd_intr, 30 vs 23, 6 vs 22, 19 vs 22, 31 vs 26) was 9 fold. The pKa_SA in data set [1] was 7.87.

On to `NS(=O)(=O)c1c(F)c(F)c(SCc2ccccc2)c(F)c1F` [Inhibitor 32], for which, in data set [3] (Kd_intr), the “stronger intrinsic binding to CA VI-mimic than inhibitor 9” value turned out to be 4 fold and the “stronger intrinsic binding to CA VI-mimic than inhibitor 15” value came to 2 fold. Besides, in data set [1], the pKa_SA was 8.53. Further, the Kd on CA VI [2] is 0.33 µM.

Consider `CCOC(=O)c1cnc(SCC(=O)c2ccc(Cl)c(S(N)(=O)=O)c2)[nH]c1=O` [Inhibitor 33], for which, in data set [1], the pKa_SA is 8.90.

With `NS(=O)(=O)c1ccc(C(=O)CSc2ccccc2)cc1Cl` [Inhibitor 34], the Kd in data set [3] (pH 7.0, 37 °C) is 0.33 µM; on CA VI [2] it was 1.1 µM; on CA II, 0.0056 µM. Also, the pKa_SA in data set [1] was 8.70.

Consider `Cc1cc(C)nc(SCC(=O)c2cccc(S(N)(=O)=O)c2)n1` [Inhibitor 35], for which the pKa_SA in data set [1] is on record as 9.40.

As to `CCc1cnc(SCC(=O)c2ccc(S(N)(=O)=O)c(Cl)c2)nc1` [Inhibitor 36], the pKa_SA in data set [1] is listed as 8.90.

With `CCCc1cnc(SCC(=O)c2ccc(S(N)(=O)=O)c(Cl)c2)nc1` [Inhibitor 37], the pKa_SA in data set [1] is given as 8.90.

Turning to `CCCc1cnc(SCC(=O)c2ccc(S(N)(=O)=O)cc2)nc1` [Inhibitor 38], the pKa_SA in data set [1] is reported as 9.40.

In the case of `Cc1cc(=O)[nH]c(SCC(=O)c2ccc(S(N)(=O)=O)c(Cl)c2)n1` [Inhibitor 39], the pKa_SA in data set [1] was 8.90.

For the molecule `NS(=O)(=O)c1cccc(C(=O)Cn2cnc3ccccc32)c1` [Inhibitor 40], the Kd in data set [3] (pH 7.0, 37 °C) was 3.3 µM; on CA VI [2], 6.7 µM; on CA II it was 3.6 µM. The pKa_SA in data set [1] is 9.60.

On to `NS(=O)(=O)c1ccc(C(=O)Cn2cnc3ccccc32)cc1Cl` [Inhibitor 41], for which, in data set [1], the pKa_SA is on record as 8.30. For the same molecule, the Kd on CA VI [2] is 3.3 µM.

Turning to `NS(=O)(=O)c1ccc(C(=O)Cn2c(Cc3ccccc3)nc3ccccc32)cc1Cl` [Inhibitor 42], the Kd in data set [3] (pH 7.0, 37 °C) is 0.33 µM; on CA VI [2] it was 1.4 µM. Besides, the pKa_SA in data set [1] was 8.70.

On to `NS(=O)(=O)c1cccc(C(=O)Cn2c(Cc3ccccc3)nc3ccccc32)c1` [Inhibitor 43], for which the Kd in data set [3] (pH 7.0, 37 °C) is 3.3 µM; on CA VI [2] it was 10 µM. Also, the pKa_SA in data set [1] is 9.60.

For `NS(=O)(=O)c1cccc(C(=O)CSc2nc3ccccc3s2)c1` [Inhibitor 44], the Kd was 0.5 µM in data set [3] (pH 7.0, 37 °C); 3.3 µM at CA VI [2]; 0.14 µM at CA II. Moreover, in data set [1], the pKa_SA was 9.60.

Regarding `C=CCNc1nc(-c2ccc(S(N)(=O)=O)c(Cl)c2)cs1` [Inhibitor 46], the Kd in data set [3] (pH 7.0, 37 °C) was 1.1 µM; on CA VI [2], 17 µM; at CA II it was 0.1 µM. The pKa_SA in data set [1] is 9.40.
